This passage reports GI50 and TGI results from PubChem BioAssay (NCI).

“And” between values parts separate entries of the source, which are not always exact repeats. Identical values can stand only once.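 These data come from cells grown in 96-well plates and exposed to compound for 48 hours at five concentrations. At the GI50, growth is halved. TGI: concentration producing complete growth inhibition.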

Among the test systems are MDA-MB-231 breast; NCI-H460 lung; SF-295 CNS; HCT-15 colon; HOP-92 NSCLC; SNB-19 CNS; MOLT-4 leukemia; HL-60(TB) leukemia.
What all share (assay): NCI tumour cell line growth inhibition, 48 h

With `CCOC(=O)c1c(C)c2c(n1C)CSc1cc(S(=O)(=O)c3ccccc3)c(=O)[nH]c1-2`, the GI50 in the assay with MDA-MB-231 breast is 24500 nM; in the assay on NCI-H460 lung it was 25700 nM; with SF-295 CNS, 14000 nM; in the assay on HCT-15 colon, 25800 nM; in the assay on HOP-92 NSCLC it was 1110 nM; with SNB-19 CNS, 26900 nM. The GI50 in the assay on MOLT-4 leukemia was 11200 nM; in the assay on HL-60(TB) leukemia, 25200 nM. Also, the TGI was greater than 100 µM with MDA-MB-231 breast; greater than 100 µM in the assay with NCI-H460 lung; 61.9 µM with SF-295 CNS; greater than 100 µM with HCT-15 colon; 28.5 µM in the assay with HOP-92 NSCLC; greater than 100 µM in the assay with SNB-19 CNS. Besides, the TGI in the assay with MOLT-4 leukemia was 98.6 µM; in the assay on HL-60(TB) leukemia, greater than 100 µM.

With `CC/C(=C(\c1ccc(O)cc1)c1ccc(OCCNC)cc1)c1ccccc1`, the GI50 with MDA-MB-231 breast is 1890 nM and 1650 nM and 1610 nM; in the assay on NCI-H460 lung it was 1980 nM and 1830 nM and 1890 nM; in the assay with SF-295 CNS, 1720 nM and 1840 nM and 1940 nM; in the assay with HCT-15 colon it was 1800 nM and 1560 nM; with SNB-19 CNS it was 3610 nM and 2670 nM and 2630 nM; in the assay on MOLT-4 leukemia, 3220 nM and 1940 nM and 2980 nM. For the same compound, the GI50 in the assay with HL-60(TB) leukemia was 1880 nM and 1890 nM and 2390 nM. The TGI was 4.31 µM and 3.52 µM and 3.22 µM in the assay with MDA-MB-231 breast; 3.67 µM and 3.45 µM and 3.66 µM in the assay on NCI-H460 lung; 3.48 µM and 3.55 µM and 4.09 µM with SF-295 CNS; 3.92 µM and 3.2 µM and 3.71 µM with HCT-15 colon; 2.04 µM and 2.96 µM and 7.46 µM in the assay on HOP-92 NSCLC; 10.9 µM and 8.03 µM and 7.01 µM in the assay with SNB-19 CNS. Also, the TGI is 8.37 µM and 5.92 µM and 8.57 µM in the assay on MOLT-4 leukemia; 4.43 µM and 4.07 µM and 5.44 µM in the assay on HL-60(TB) leukemia.

On to `CCOC(=O)c1cc(C(=O)c2cc(OC)cc(OC)c2)n2ncccc12`, for which the GI50 was 8180 nM with MDA-MB-231 breast; 2580 nM with NCI-H460 lung; 2100 nM in the assay on SF-295 CNS; 587 nM with HCT-15 colon; 24900 nM with HOP-92 NSCLC; 4280 nM with SNB-19 CNS. For the same compound, the GI50 with MOLT-4 leukemia was 2630 nM; in the assay with HL-60(TB) leukemia it was 1380 nM. Besides, the TGI in the assay on MDA-MB-231 breast, in the assay with NCI-H460 lung, in the assay on SF-295 CNS, in the assay on HCT-15 colon, with HOP-92 NSCLC and with SNB-19 CNS was greater than 100 µM in each case. The TGI in the assay on MOLT-4 leukemia is greater than 100 µM; in the assay on HL-60(TB) leukemia it was 4.66 µM.

In the case of `N#Cc1c(NC(=O)CCC(=O)O)ccc2ccccc12`, the TGI in the assay with MDA-MB-231 breast, in the assay on NCI-H460 lung, in the assay on SF-295 CNS, in the assay with HCT-15 colon, with HOP-92 NSCLC and in the assay on SNB-19 CNS was greater than 100 µM in each case.

Regarding `O=S(=O)(Nc1ccc(Cl)c(C(F)(F)F)c1)c1ccc(-c2cnc(C3CC3)o2)cc1`, the GI50 in the assay on MDA-MB-231 breast is 1230 nM; with NCI-H460 lung, 102 nM; in the assay on SF-295 CNS it was 131 nM; with HCT-15 colon, 156 nM; in the assay with HOP-92 NSCLC, 1040 nM; in the assay on MOLT-4 leukemia, 622 nM. In addition, the GI50 in the assay on HL-60(TB) leukemia is 261 nM. Moreover, the TGI worked out at 3.64 µM with MDA-MB-231 breast; 10 µM in the assay on NCI-H460 lung; 2.12 µM in the assay with SF-295 CNS; 5.57 µM with HCT-15 colon; 4.16 µM in the assay on HOP-92 NSCLC; 14.1 µM in the assay on MOLT-4 leukemia. Also, the TGI in the assay with HL-60(TB) leukemia came to 1.49 µM.

For the compound `CS(=O)(=O)c1ccc(C(F)(F)F)cc1NC(=O)Nc1cnc(Oc2ccc(-c3cc(Cl)cnc3N)cc2)nc1`, the GI50 in the assay with MDA-MB-231 breast is 1720 nM; in the assay with NCI-H460 lung it was 2070 nM; in the assay with SF-295 CNS, 1990 nM; in the assay on HCT-15 colon, 2740 nM; in the assay on HOP-92 NSCLC it was 1750 nM; with SNB-19 CNS, 2800 nM. Moreover, the GI50 with MOLT-4 leukemia was 2120 nM; in the assay with HL-60(TB) leukemia it was 2630 nM. The TGI in the assay on MDA-MB-231 breast amounted to 3.79 µM; in the assay on NCI-H460 lung, 4.42 µM; with SF-295 CNS, 5.71 µM; in the assay on HCT-15 colon, 13.4 µM; with HOP-92 NSCLC it was 5.12 µM; with SNB-19 CNS it was 34 µM. Besides, the results for the TGI in the assay with MOLT-4 leukemia and in the assay with HL-60(TB) leukemia were 6.53 µM and 5.75 µM, respectively.

For `COc1cc(/C=C2\C(=O)N(c3c(Cl)cccc3Cl)c3ccccc32)cc(OC)c1O`, the GI50 is 2560 nM in the assay on MDA-MB-231 breast; 342 nM with NCI-H460 lung; 702 nM with SF-295 CNS; 68.2 nM in the assay with HCT-15 colon; 1970 nM in the assay on HOP-92 NSCLC; 742 nM with SNB-19 CNS. The GI50 in the assay on MOLT-4 leukemia is 455 nM; with HL-60(TB) leukemia, 1010 nM. Moreover, the TGI with MDA-MB-231 breast is 31.5 µM; with NCI-H460 lung, 4.58 µM; in the assay on SF-295 CNS, 16.7 µM; in the assay with HCT-15 colon, 11.2 µM; in the assay with HOP-92 NSCLC it was 11 µM; in the assay on SNB-19 CNS, 19.3 µM. Also, the TGI in the assay on MOLT-4 leukemia came to 20.4 µM; with HL-60(TB) leukemia, 8.74 µM.

With `O=[N+]([O-])c1ccc2nc(N/N=C/c3ccc(O)cc3)sc2c1`, the GI50 in the assay with MDA-MB-231 breast is 6060 nM; with NCI-H460 lung it was 4180 nM; with SF-295 CNS, 5610 nM; with HCT-15 colon, 3870 nM; in the assay on HOP-92 NSCLC, 2170 nM; in the assay with SNB-19 CNS, 6240 nM. Moreover, the GI50 in the assay on MOLT-4 leukemia was 2960 nM; in the assay on HL-60(TB) leukemia, 3600 nM. Also, the TGI with MDA-MB-231 breast is greater than 100 µM; with NCI-H460 lung, 24.2 µM; in the assay on SF-295 CNS, greater than 100 µM; in the assay on HCT-15 colon, greater than 100 µM; in the assay on HOP-92 NSCLC, 8.96 µM; in the assay on SNB-19 CNS, greater than 100 µM. The TGI with MOLT-4 leukemia was greater than 100 µM; with HL-60(TB) leukemia, 10.6 µM.

Consider `O=[N+]([O-])c1ccc(N(CCO)CCO)c2c1no[n+]2[O-]`, for which the GI50 is 2290 nM with MDA-MB-231 breast; 645 nM in the assay on NCI-H460 lung; 803 nM with SF-295 CNS; 1560 nM in the assay with HCT-15 colon; 1220 nM with HOP-92 NSCLC; 1760 nM in the assay with SNB-19 CNS. The GI50 with MOLT-4 leukemia was 1270 nM; in the assay on HL-60(TB) leukemia, 759 nM. The TGI with MDA-MB-231 breast was determined as 14.3 µM; in the assay on NCI-H460 lung, 2.72 µM; in the assay with SF-295 CNS, 3.38 µM; in the assay with HCT-15 colon, 7.06 µM; in the assay with HOP-92 NSCLC it was 5.82 µM; in the assay with SNB-19 CNS it was 5.9 µM. Also, the TGI in the assay on MOLT-4 leukemia came out at 5.18 µM; in the assay on HL-60(TB) leukemia, 3.57 µM.

As for `Cc1ccnc2c1NC(=O)c1cccnc1N2C1CC1`, the GI50 in the assay on MDA-MB-231 breast, with NCI-H460 lung, with HCT-15 colon, in the assay on HOP-92 NSCLC, in the assay with SNB-19 CNS and in the assay with MOLT-4 leukemia was greater than 100000 nM each time. For the same compound, the GI50 with HL-60(TB) leukemia is greater than 100000 nM. The TGI with MDA-MB-231 breast, with NCI-H460 lung, in the assay with HCT-15 colon, in the assay on HOP-92 NSCLC, with SNB-19 CNS and in the assay on MOLT-4 leukemia was greater than 100 µM throughout. The same compound registered a TGI with HL-60(TB) leukemia greater than 100 µM.
